From patent publication US20250051395A1, “PEPTIDES AND METHODS FOR USE IN TREATING PAIN” (TAFALGIE THERAPEUTICS, priority 2021, published 2025)

Legend:
[1] = tested on: carrageenan model (inflammatory pain), C57Bl6 mice; experiment: Carrageenan injection inflammatory pain model, Von Frey paw withdrawal threshold; format: in vivo; conditions: celecoxib subcutaneous, 20 mg/kg
Method: Inventors injected 20 μl of 1% λ-carrageenan (Sigma-Aldrich, 22049-5G-F) in 1×PBS into the plantar surface of the left hind paw of the mouse with a Hamilton syringe. The carrageenan injection was used as an inflammatory pain model.
(§1) The Von Frey's uses Von Frey (VF) hair or fibers, which are small pieces of nylon rod, approximately 50 mm in length to test a rodent's sensitivity to a mechanical stimulus. In this test, the animal stands on an elevated mesh platform, and the Von Frey hairs are inserted through the mesh to poke the animal's hindpaw. Normal reactions for the animal include withdrawing or licking or shaking the paw. The “up-down” Von Frey method is used to determine the mechanical force required to elicit a paw withdrawal response in 50% of animals. Here, mice were placed in plastic chambers on a wire mesh grid and stimulated with von Frey filaments (Bioseb) by the “up-down” method (45) starting with a 1 g filament, and using 0.04 and 4 g filaments as the cutoffs.
The experiments were conducted on eight-week-old male WT C57Bl6. Three groups of 8 mice were used.
As previously described, measurement with Von Frey filaments by the up/down method for determining the baseline was done. Then, an intraplantar injection of 20 μl of carrageenan (1%) was performed into a hind paw. […] Celecoxib is a well-known drug used as positive control.

[2] = tested on: paw incision model (postoperative pain), C57Bl6 mice; experiment: Paw incision (Brennan) postoperative pain model, Von Frey paw withdrawal threshold, curative treatment; format: in vivo; conditions: morphine oral, 1 mg/kg, D1 after paw incision
Method: Mice were anesthetized with ketamine (100 mg/kg IP) and xylazine (10 mg/kg IP) and a longitudinal incision was made through the skin and fascia of the right hind paw. Forceps were used to elevate the flexor digitorum brevis muscle longitudinally and an incision was made through the muscle with a scalpel, to cut it into two halves. The wound was closed with sutures, and the animals were allowed to recover and returned to their cages. The paw incision was used as postoperative pain model.
as §1
The experiments were conducted on eight-week-old male WT C57Bl6. Three groups of 8 mice were used. […]

[3] = tested on: Spared Nerve Injury (SNI) model, C57Bl6 mice; experiment: Spared Nerve Injury (SNI) model of neuropathic pain, Von Frey up-down paw withdrawal threshold; format: in vivo; conditions: for antalgic effect when administered orally: per os, 7 days after surgery, vs vehicle (FIG. 5)
Method: Mice were anesthetized with ketamine (100 mg/kg IP) and xylazine (10 mg/kg IP) and the left sciatic nerve was exposed under aseptic conditions. The distal trifurcation of the sciatic nerve was identified and the tibial and common peroneal branches were ligated with polypropylene nonabsorbable 6-0 sutures (Ethicon); 1 mm was cut out, leaving the sural branch intact. The wound was closed with sutures, and the animals were allowed to recover and returned to their cages.
as §1
The experiments were conducted on eight-week-old male WT C57Bl6 mice. Three groups of 8 mice were used. Peptide of SEQ ID NO: 1 is resuspended in 0.9% NaCl at [0.6 mg/mL]. The peptide was diluted and used at a concentration of 0.3 mg/kg in this study.
After having measured the base threshold of mice with Von Frey (VF) filaments by the up/down method, the SNI model is set into place. The mice are anesthetized, ligature of the tibial nerve and of the fibular nerve is put into practice and these two nerves are then severed. The sural nerve left intact develops neuropathy quite rapidly. The occurrence of neuropathy is ascertained after 3 days post-surgery. A decrease in the response threshold to Von Frey filaments of the ipsilateral paw is thereby observed.
7 days after surgery, the response threshold is again measured. 100 μl/10 g of each of the peptide solutions, of vehicle and pregabalin solution are then blind-injected subcutaneously for the experimenter.
The same protocol was used as described in 1.1 except that the administration of the peptide, vehicle and pregabalin was done 14 days after surgery using per os administration for the peptide and vehicle.
For per os administration, the peptide of SEQ ID NO: 1 was diluted at a concentration of 30 μg/mL in a solution of 1% w/v Hydroxypropylmethylcellulose (Sigma-aldrich #423238, batch MKCD3665), 0.5% v/v Tween 80 (Euromedex #2002-A, batch 100412/16S407), referred then after as HPMC solution (vehicle).
Vehicle and peptide solution were orally administered using two gavage needles. […]

[4] = tested on: injury-induced mechanical hypersensitivity in mice; conditions: cited from earlier work
[5] = pregabalin 5 mg/kg by gavage, day 14 post-SNI

## Cc1ccc(-c2cc(C(F)(F)F)nn2-c2ccc(S(N)(=O)=O)cc2)cc1 [celecoxib]
[1]
  time of maximum antalgic effect: 2 h

## CN1CC[C@]23c4c5ccc(O)c4O[C@H]2[C@@H](O)C=C[C@H]3[C@H]1C5 [morphine]
[2]
  response threshold: increase in the response threshold

## CC(C)C[C@H](CN)CC(=O)O [pregabalin, reference compound]
[3]; [5]
  effect on mechanical threshold at 4 h post-administration: completely abolished
  time of maximum reversal effect on mechanical threshold: 2 h

## TAFA-4 full length protein: human TAFA-4 mature protein of 105 amino acid residues, secreted neurokine of the prior art
[3]
  antalgic effect when administered orally: did not show significant antalgic effect
[3]; listed as TAFA4
  antalgic effect when administered orally: No statistical differences
[4]; intrathecal and subcutaneous administration, male and female mice
  mechanical hypersensitivity (inflammatory, post-operative, nerve injury-induced): reverses inflammatory, post-operative and nerve injury-induced mechanical hypersensitivity
[4]; intrathecal injection, TAFA-4 gene deleted mice
  prolonged nerve injury-induced mechanical hypersensitivity of TAFA-4 gene deleted mice: reversed
